A short description of data set [1]: Pentapeptide metabolic and pharmacokinetic studies after i.v. bolus of tritiated pentapeptide. The format is in vivo, rat. As to the method:
The in vivo time course of distribution, metabolism and elimination of the pentapeptide was investigated in anesthetized adult male rats using physiological concentrations of circulating tritiated pentapeptide.
Anesthetized male rats were given a bolus intravenous injection of 170 pmoles or 110 ng tritiated pentapeptide diluted in 100 μl PBS Dulbecco's. Blood was collected in tubes containing a mixture of peptidase inhibitors described above, via a silastic catheter implanted into the external jugular vein. Blood was withdrawn just before and 2, 4, 6, 8, 10, 20, 30, 45, 60, 90 and 120 min. after peptide administration. Two milliliters of blood per rat were taken in all and the entire urinary bladder content was collected at a last selected point.
The biological samples were submitted to centrifugation and Parapak Q extraction conditions, as described above. Chromatrography using HPLC procedure described above and in the reference (Rougeot et al., 1994) was then applied to each extracted sample. The ODS AQ RP-C18 was used for identification of amino-terminal metabolites and Pep RPC HR C18 (Pharmacia, France) for identification of carboxyl-terminal metabolites. The radioactivity content of samples before and after chromatographic separations was determined using a beta counter (Kontron, MR300).

A short description of data set [2]: Chromatographic characterization of radioactive peptide uptake by tissues. In kind it is in vivo, rat. The following applies: 180 min after injection. The protocol:
The chromatographic characteristics of the labeled compound associated, in vivo, to target organs were assessed by HPLC.
At selected time points (2 and 180 min.) after administration of tritiated pentapeptide, the anesthetized rats were sacrificed (cardiac blood puncture) and tissues quickly removed on ice. The tissues were immediately homogenized at 4° C. in 5-10 volumes of 0.1 M chlorhydric acid using a potter homogenizer (demineralization of bone tissue was realized after 24-48 h at 4° C. in guanidium hydrochloride and EDTA pretreatment, 4 M and 0.25 M final concentration, respectively). Homogenates were centrifuged for 30 min. at 4° C. and 15,000 g. To determine total radioactivity, aliquots of the supernatant solution were added to 50 volumes of Biofluor (NEN, Dupont de Nemours, France) and counted in a liquid scintillation counter.
To determine the radioactivity in the pentapeptide fraction, aliquots of the tissue extracts were submitted to a methanol-extraction procedure (Rougeot et al., 1994) after neutralization with Tris/HCl pH 8.5 containing 16 mM DTPA (DiethyleneTriaminePenta-Acetic acid, Sigma, France). […] Fractions were collected every 60 sec. and analyzed for radioactivity using a liquid scintillation counter.

The subject of data set [3] is ^3H-pentapeptide binding sites. The data set is described as follows: Cellular localization of ^3H-pentapeptide binding sites by light microscopic autoradiography. The format is in vivo, rat. As to the method:
(§1) The cellular-site localization for physiological concentrations of labeled pentapeptide was investigated by paraffin- or resin-section microscopic autoradiography procedure. Sixty minutes after ^3H-pentapeptide (555 KBq, 160 ng or 250 pmoles) i.v. administration, the anesthetized male rats were perfused via the jugular veins with ice-cold Krebs Ringer Bicarbonate Glucosed buffer and then 0.5% paraformaldehyde/0.5% glutaraldehyde fixative PBS buffer (plus glucose 1.6%, CaCl2 0.002% and DMSO 1%) (50 ml/5 min. for each). Tissues were rapidly removed and harvested for paraffin sectioning (Paraplast plus-Sherwood medical, OSI, France) or for resin sectioning (histo-resin Leica, France). All sections were cut at 5 microns (Reichert Jung for paraffin and RM2155 Leica for resin sections) and mounted on Superfrost/Plus glass slides (non gelatin-coated). Paraffin was removed with xylene, and sections were carried through a descending, then an ascending ethanol series (from 100 to 50%, V/V and reverse). Dried sections were then processed for light microscope autoradiography by attaching nuclear emulsion-coated (Kodak, NTB2, diluted 1:1 with distilled water) coverslips to them. After air drying for 2 hrs at room temperature the autoradiographs were exposed for 6 to 10 weeks in light-tight boxes at 4° C. Radiosensitive coverslips were developed in Kodak D19 (3 min.) developer and fixed in Kodak fixer (3 min.) Sections were counterstained with Harris' hematoxylin (Prolabo, France) and Toluidine blue (Sigma, France), dehydrated and mounted in Eukitt medium. The tissue and overlying silver grains were viewed and photographed with a Leica photomicroscope equipped with bright-field optics (DMRD Leitz, Leica).

Data set [4] has as its system pentapeptide binding sites. In words: In vivo displacement of ^3H-pentapeptide uptake by coinjection of 100-fold excess unlabeled peptide. On the set-up: species or system rat. The following applies: for specific labeling percentage: 60 min, 100-fold excess unlabeled peptide.
From the text: Biological receptor sites have two essential characteristics that allow specific binding to be identified, in vivo; they have a high affinity for the ligand and the binding is saturable (Whitcomb et al., 1993). Therefore, displacement experiments, using parallel systemic administration of an excess of the corresponding unlabeled peptide has been performed. Furthermore, the specific cellular localization of labeled pentapeptide to target tissues has been identified by section microscopic autoradiography.
as §1
The tritium activity was determined as counts/mm^2.
In the case of radioactive quantification of organ sections or acid extracts, using a liquid scintillation counter (MR300Kontron), the tritium activity was determined as cpm/mg protein. Protein concentration was determined by the Bradford method (Bradford et al., 1976).

For data set [5] the following is noted: rat, in vivo.
Procedure: Labeled compound i.e. 6.66 MBq, 3 nmoles or 2 mg for whole body autoradiography (WBA) and 370-555 KBq, 170-250 pmoles or 110-160 ng for the pharmacokinetic and cellular-site distribution studies was diluted in 100-200 ml of phosphate-buffered saline (PBS Dulbecco's, Bio Media, France) and administered intravenously into the jugular vein of anesthetized rats (halothan for WBA or pentobarbital for all the other experiments).
The target tissues for the final secretory maturation product of SMR1, the pentapeptide, was examined, in vivo, by the whole body autoradiography procedure according to the method of Ullberg (Ullberg et al., 1981).
The five week-old rats were sacrificed under halothane, at 90 sec., 3, 60 and 240 min. after i.v. injection of 3 nmoles (6.66 MBq or 2 μg) of tritiated pentapeptide. At the selected time, the restrained animal was immediately immersed in a −80° C. mixture of dry ice and isopentane, to prevent artifactual tracer redistribution. After 48 hours in self-sealing plastic stored at −30° C., the animal was then blocked in mounting medium. Whole body sagittal sections (20 mm) of the frozen rat were made at −30° C. with a cryostat (whole body slicing microtome Leitz 400 with a chest mobile freezer Leitz O M, Leica, France). Sections adhering to Scotch tape were left in a freezer, temperature −30° C., for 4 days to insure complete drying. The tapes were placed in a film cassette with ^3H Hyperfilm (Amersham, France) at −20° C. After two weeks the films were developed in Kodak D19 developer and fixed in Kodak fixer.
Data from whole body sections or individual organ sections placed in the gas-chamber detector were collected for 8 hr. or 50 hr., respectively. The number of counts per pixel was recorded in the β imager 2200 (Biospace, France) with a surface detector of 20×20 cm^2, followed by computer-assisted image analysis with the β Vision program using a HP Vectra computer. The tritium activity was determined as counts/mm^2. The linearity of this method of detection allowed measurement of the non specific binding of ^3H-pentapeptide, measured in various structures or compartments within the section with apparent non binding sites for the peptide (background tissues, e.g. muscle and cardiac blood except brain and spinal cord) or in the same labeled structure, in displacement experiments.
For data set [6] the following is noted: rat, in vivo. As to the method:
FIG. 4. Quantitative profile of radioactivity in various tissues following administration of 100 pmoles ^3H-hexapeptide, 60 min post-dose or plus 100 nmoles unlabelled peptide to non specific binding.
Quantification was assessed using a spectrometer and calculated as cpm/mg protein from whole tissue extracts.
FIG. 5. Quantitative profile of radioactivity in various tissues following administration of 5 pmoles ^125I-undecapeptide (VRGPRRQHNPR, SEQ ID NO: 7), 10 min post-dose or plus 100 nmoles unlabeled peptide to non specific binding.
Quantification was assessed using a gama-spectrometer and calculated as cpm/g tissue.
This is another data set of the same source.

The target in data set [7] is anti-pentapeptide serum (rabbit antiserum raised against QHNPR conjugated to egg albumin). In words: competitive liquid phase RIA, displacement of 125I-labelled pentapeptide from the antiserum. (In general: Displacement assays read how much labelled ligand stays bound in the presence of the test substance.)
The mark [8] stands for this setting: single i.v. injection of 110 ng.

Square brackets hold non-standard residues; d marks the D form. Ends that are not written are not given here. pGlu = O=C1CC[C@@H](C(=O)O)N1

Take “QHNPR [pentapeptide, (Gln1)-His-Asn-Pro-Arg]”: in data set [1] (over a 60 min period, anesthetized rats, 170 pmoles dose), the “amount eliminated through glomerular filtration” value worked out at 6 pmol. The “pentapeptide-binding substance complex as share of the circulating peptide fraction” value in data set [1] (plasma) is “approximately 45%”. In addition, the “urine radioactivity that is pentapeptide metabolites” value in data set [1] (rat, in vivo) was “Approximately 80%”. Also, the “time from which plasma concentration is back close to a basal level” value in data set [1] (setting [8]) is no less than 30 min. Moreover, in data set [1] (setting [8]), the “time to maximal plasma level” value was no more than 2 min. The “infused pentapeptide metabolized in the bloodstream” value in data set [1] (within 4 min) is listed as 35%. The “radioactive extract representing metabolites” value in data set [2] (DTPA) is given as 8±6%. In addition, the “radioactive peptide fraction extracted by methanol” value in data set [2] (DTPA 16 mM added) was determined as 53±9%. Besides, the “cellular localization of silver grains” value is “the trabeculae bone spaces” in data set [3] (bone tissue); “over the entire dentin layer” in data set [3] (dental tissue, upper incisor root); “over the chief or peptic cells” in data set [3] (glandular gastric mucosa); “over the epithelial cells of the S3 segment of the straight portion of the proximal tubules” in data set [3] (kidney, 60 min, physiological concentration); “over the cells of acini” in data set [3] (pancreatic tissue). The cellular label entry in data set [3] (glomeruli, epithelia of distal and collecting tubules) is “No specific cellular label”; in data set [3] (pancreatic ducts and islets of Langerhans), “No label was observed”; in data set [3] (submandibular tissue) it was “no selective cell association of label was identifiable”. In addition, the specific labeling percentage is given as 38-61% in data set [4] (glandular mucosa of the stomach), 29-38% in data set [4] (long bone), 37-55% in data set [4] (pancreatic lobules) and 51-91% in data set [4] (submandibular lobules). The “displacement of uptake by excess cold ligand” value in data set [4] (renal outer medullary) was “almost complete displacement”. Further, the “radioactivity in the intestinal content” value in data set [5] is “No radioactivity was found”. Also, the “time by which binding to tissue sites has occurred” value in data set [5] was no more than 90 s. In data set [5], the “time over which binding is stable” value is recorded as 240 min. Also, the “tissue to blood ratio” value in data set [5] was roughly 2.

Regarding RQHNPR [hexapeptide], in data set [6], the preferred target organs result was “kidney and pancreas”; the “retention by the glandular mucosa of stomach” value was “very efficiently retained”; the “target organs compared with the pentapeptide” value was “almost the same as the target organs of the pentapeptide”.

For VRGPRRQHNPR [undecapeptide], in data set [6], the preferred target organs result is “kidney and pancreas”; the “target organs compared with the pentapeptide” value is “almost the same as the target organs of the pentapeptide”.

In data set [7], QHNPR [(Gln1)-His-Asn-Pro-Arg, SMR1-derived pentapeptide QHNPR (unlabelled)] came in with an amount of standard for 50% displacement of less than 570 fmol and a detection limit (80% binding) of 106 fmol.

In data set [7], [pGlu]HNPR [(Glp1)-His-Asn-Pro-Arg] had an amount of standard for 50% displacement of less than 570 fmol and a detection limit (80% binding) of 106 fmol.

In data set [7], QHNP [tetrapeptide sequence (QHNP)] gave a cross-reactivity of less than 0.01%.

The record behind these values is patent publication US7429448B2, “Therapeutic use of the SMR1 protein and active derivatives thereof” (Institut Pasteur, priority 1998, dated 2008).
